Measurements taken from publication PMC11033320, “Activation of p53 signaling and regression of breast and prostate carcinoma cells by spirooxindole-benzimidazole small molecules” (Frontiers in Pharmacology, 2024).

What was measured:
[1] = test system: CNS cancer cells (SF-268, SF-295, SF-539, SNB-19, SNB-75, U251); test: NCI anticancer screening, CNS cancer subpanel; type: cell-based, human
Description: The compound has been processed according to standard method NCI-60 Human Tumor Cell Lines Screen for organic compound at development therapeutic program (DTP). Requests for access to this national resource can be submitted online at: […]

[2] = test system: NF-κB; test: Real time PCR NF-κB gene expression in MDA-MB 231 cells; details: treated MDA-MB 231 cells compared to untreated cells
[3] = test system: human p53 transcription factor; test: p53 transcription factor activity assay in MDA-MB 231 cells; type: cell-based; details: treated MDA-MB 231 cells relative to the untreated cells
Protocol: The relative fold activation of p53 in the treated MDA-MB 231 cells were quantified using human p53 transcription factor activity assay kit (RayBio, USA). Briefly, 100 µl of lysates of the untreated and treated MDA-MB 231 cells were added to p53 probe-coated 96 wells and incubated for 2 h (these oligonucleotides capture the active p53 in cell lysate). After washing for discarding unbound p53, primary antibody was added to bound p53-DNA complex, incubated for 1 h. Each well was washed then peroxidase-conjugated secondary antibody was added and incubated for 1 h. After washing and incubating with substrate for 30 min, the absorbance was measured at 450 nm.

[4] = test system: p53; test: Immunohistochemical detection of p53 in MDA-MB 231 cells; type: cell-based, human; details: MDA-MB 231, 72 h, compared to untreated cells
Protocol: (§1) After trypsinization, the untreated and treated MDA-MB231 cells were centrifuged and washed with PBS buffer and then 10% formalin in PBS was added to cell pellets. The fixed cell specimens were dehydrated in ascending grades of alcohol and immersed in xylene for one hour (three times) followed by impregnation in melted paraffin to from solid paraffin blocks. Then a rotator microtome was used to cut each block into 3-5 μm thick sections that were transferred into positively charge slides. Slides were dried at 60-70°C for 1-2 h then dewaxed by immersion in xylene 3 times and rehydrated in descending grading ethanol. After that slides were incubated in 3% H2O2 for 10 min, washed in PBS buffer twice for 3 min and put in 10 mM citrate buffer […] followed by heating for 10-20 min. After cooling and washing in PBS, slides were separately soaked overnight in primary antibodies (anti-Ki-67 and anti-p53). Slides were washed in PBS, covered with biotinylated goat anti-polyvalent secondary antibody for 10 min and then streptavidin peroxidase was added. After 10 min, substrate of secondary antibody (3,3'-diaminobenzidine) was added followed by washing in PBS and placing in hematoxylin bath for 1-4 min then washing in PBS (1 min) and water (3 min). Percentage of immunostained cells was evaluated by imaging analysis cellSens software of phase contrast microscope (Olympus, Japan).

[5] = test system: Ki-67; test: Immunohistochemical detection of Ki-67 in MDA-MB 231 cells; type: cell-based, human; details: MDA-MB 231, 72 h; untreated 82.425%
Protocol: as §1

[6] = test system: cyclin D; test: Real time PCR cyclin D gene expression in MDA-MB 231 cells; details: treated MDA-MB 231 cells compared to untreated cells
[7] = test system: p21; test: Real time PCR p21 gene expression in MDA-MB 231 cells; details: treated MDA-MB 231 cells compared to untreated cells

Question: With O=C(c1nc2ccccc2[nH]1)[C@H]1[C@H](c2ccc(Cl)cc2Cl)C2CSCN2[C@]12C(=O)Nc1ccccc12 (stereo partly drawn) [Compound 6g, (3S,6′R)-6'-(1H-Benzo [d]imidazole-2-carbonyl)-7'-(2,4-dichlorophenyl)-3′,6′,7′,7a′-tetrahydro-1′H-spiro [indoline-3.5′-pyrrolo [1,2-c]thiazol]-2-one] as the compound, how does the “growth inhibition in CNS cancer cells” value [1] read?
Answer: The value was “less than 80%”.

Question: Which “expression level of NF-κB” value [2] does the source give for O=C(c1nc2ccccc2[nH]1)[C@H]1[C@H](c2ccccc2)C2CSCN2[C@]12C(=O)Nc1ccccc12 (mixture of isomers) [Compound 6a, (3S,6′R)-6'-(1H-benzo [d]imidazole-2-carbonyl)-7′-phenyl-3′,6′,7′,7a′-tetrahydro-1′H-spiro [indoline-3.5′-pyrrolo [1,2-c]thiazol]-2-one] here?
Answer: The value was “downregulating”.

Question: What about the “fold activation of p53 transcription factor” value [3] of the same compound?
Answer: The value was 5.983 ± 0.142 fold.

Question: And the “increase of protein level of p53” value [4]?
Answer: The value was 60.2%.

Question: And the “Ki-67 level (positive immunostaining cells)” value [5]?
Answer: Its value is 1.18%.

Question: What about the “expression level of cyclin D” value [6] of the same compound?
Answer: Its value is “downregulating”.

Question: Which results are given for Cc1ccc([C@@H]2C3CSCN3[C@]3(C(=O)Nc4ccccc43)[C@H]2C(=O)c2nc3ccccc3[nH]2)cc1 (mixture of isomers) [Compound 6d, (3S,6′R)-6'-(1H-Benzo [d]imidazole-2-carbonyl)-7'-(p-tolyl)-3′,6′,7′,7a′-tetrahydro-1′H-spiro [indoline-3.5′-pyrrolo [1,2-c]thiazol]-2-one]?
Answer: expression level of NF-κB [2]: downregulating; upregulation of p21 expression [7]: greater than three times; fold activation of p53 transcription factor [3]: 6.287 ± 0.254 fold; increase of protein level of p53 [4]: 54.7%; Ki-67 level (positive immunostaining cells) [5]: 3.03%; expression level of cyclin D [6]: downregulating

Question: Which “growth inhibition in CNS cancer cells” value [1] does the source give for O=C(c1nc2ccccc2[nH]1)[C@H]1[C@H](c2ccc(Br)cc2)C2CSCN2[C@]12C(=O)Nc1ccccc12 (stereo partly drawn) [Compound 6l, (3S,6′R)-6'-(1H-Benzo [d]imidazole-2-carbonyl)-7'-(4-bromophenyl)-3′,6′,7′,7a′-tetrahydro-1′H-spiro [indoline-3.5′-pyrrolo [1,2-c]thiazol]-2-one] here?
Answer: Its value is “less than 80%”.
